Data on eleven compounds can be found in patent US11733243B2, “Use of acamprosate to modulate ERK1/2 activation in animal models for FXS and ASD and individuals diagnosed with FXS and ASD” (Indiana University Research and Technology Corporation, priority 2013, dated 2023).

Entries after “also recorded” stand apart in the source; their conditions may differ.

In one data set the test system is ERK1/2. As to conditions: adults with FXS; cited from earlier work.
The next data set deals with adults with FXS. The conditions noted are these: single dose, cited from earlier work.
Data set [1] concerns cerebellar granule cells from fmr1 knockout mice. The conditions noted are these: cited from earlier work.
Data set [2] concerns persons with FXS and comorbid ASD. As to conditions: 6 persons; cited from earlier work.
The test system of another data set is fmr1 KO mice. As to conditions: mouse, in vivo; cited from earlier work.
Another data set relates to males with FXS. The conditions noted are these: cited from earlier work.
For the next data set, the target named is T1, mGluR5 (Mus musculus, UniProt Q3UVX5).
T1 construct: host or cells: fmr1 knockout mouse, in vivo
The conditions noted are these: in vivo; cited from earlier work.

A further data set deals with subjects with FXS. As to conditions: cited from earlier work.
The next data set concerns fmr1 knockout mice. As to conditions: mouse, in vivo; cited from earlier work.
Data set [3] concerns alcohol withdrawal associated anxiety. The conditions noted are these: in vivo; cited from earlier work.
The next data set has as its system alcohol intake. The conditions noted are these: mouse, in vivo; cited from earlier work.
The test system of a further data set is ERK/MAPK. The data set is described as follows: ICC of fixed lymphocytes for ERK/MAPK activity (anti-phospho-Thr202/Tyr204). Format: cell-based, human. As to conditions: tamoxifen, 10 mM. As to the method: Lymphocyte samples were prepared from patient's blood and plated onto a PDL-coated 24-well plate. Cells were fixed by adding 4% paraformaldehyde in PB solution (at RT). Excess paraformaldehyde solution was aspirate out. The fixed cells were washed three times gently with cold DPBS (Bulbecco-modified phosphate buffered saline). Then 0.12% Triton X-100 (diluted in DPBS) was added onto the cells at RT and incubated for 20 minutes at RT. Excess Triton X solution was aspirated out and cells were washed three times (gently) with chilled DPBS. Cells were blocked with 10% horse serum (HS) (diluted in DPBS) for 20 minutes at RT. Unbound blocking agent was washed off. The primary antibody diluted in 1% HS in DPBS was added. Generally a dilution of 1:250 was used. The antibody, which is raised in rabbit recognizes Phospho-Thr202/Tyr204 of ERK/MAPK, which indicates translocation of activated ERK/MAPK into the […] compartment.
Incubation with the primary antibody was done for overnight at 4° C. Unbound primary antibody was washed off, and at this stage the plate can be stored at 4° C. Washed three times at RT with cold DPBS. Added Alexa Fluor conjugated goat anti rabbit (diluted 1:200 in DPBS) and incubated at RT for 1-2 hr. This reagent and this step is light sensitive to. For best results the reagent and this step of the procedure should be kept away from the light. […]

T1 sequence (Q3UVX5 19-1203): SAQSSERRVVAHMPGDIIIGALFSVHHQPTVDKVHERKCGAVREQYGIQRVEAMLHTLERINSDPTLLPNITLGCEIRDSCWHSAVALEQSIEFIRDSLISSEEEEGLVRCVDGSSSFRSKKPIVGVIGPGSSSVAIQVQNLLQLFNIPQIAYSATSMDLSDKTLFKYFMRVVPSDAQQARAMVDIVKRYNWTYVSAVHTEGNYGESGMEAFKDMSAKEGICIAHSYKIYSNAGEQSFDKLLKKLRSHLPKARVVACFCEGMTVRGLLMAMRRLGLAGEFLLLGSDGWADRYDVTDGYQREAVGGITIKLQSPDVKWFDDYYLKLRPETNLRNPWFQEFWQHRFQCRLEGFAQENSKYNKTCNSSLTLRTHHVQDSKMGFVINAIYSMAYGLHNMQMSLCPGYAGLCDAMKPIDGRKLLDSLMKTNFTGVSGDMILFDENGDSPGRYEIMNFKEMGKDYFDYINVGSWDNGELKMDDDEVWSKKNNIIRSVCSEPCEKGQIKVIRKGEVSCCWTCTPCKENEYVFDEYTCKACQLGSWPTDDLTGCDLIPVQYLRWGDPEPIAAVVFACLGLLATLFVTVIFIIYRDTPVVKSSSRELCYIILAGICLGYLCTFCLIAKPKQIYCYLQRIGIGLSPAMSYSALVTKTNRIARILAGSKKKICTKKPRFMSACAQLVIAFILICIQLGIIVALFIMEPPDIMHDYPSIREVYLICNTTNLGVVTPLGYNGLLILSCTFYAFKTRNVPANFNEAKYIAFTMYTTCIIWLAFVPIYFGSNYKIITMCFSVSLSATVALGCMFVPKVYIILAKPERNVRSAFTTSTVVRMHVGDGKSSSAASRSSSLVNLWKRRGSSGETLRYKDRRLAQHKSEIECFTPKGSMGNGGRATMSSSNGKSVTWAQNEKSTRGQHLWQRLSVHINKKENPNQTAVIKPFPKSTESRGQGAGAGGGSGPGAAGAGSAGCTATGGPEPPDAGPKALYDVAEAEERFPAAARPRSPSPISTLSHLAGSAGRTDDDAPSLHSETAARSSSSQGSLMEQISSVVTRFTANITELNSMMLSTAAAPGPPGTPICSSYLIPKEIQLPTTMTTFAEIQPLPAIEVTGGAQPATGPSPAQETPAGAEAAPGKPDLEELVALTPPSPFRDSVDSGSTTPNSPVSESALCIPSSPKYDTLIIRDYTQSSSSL

As to `Nc1nc2ccc(OC(F)(F)F)cc2s1` [riluzole], the ERK1/2 activation rates result with ERK1/2 is given as “modifies ERK1/2 activation rates”.

In the case of `CN1CC(=O)NC1=NC(=O)Nc1cccc(Cl)c1` [fenobam], in the data set with adults with FXS (12 adults with FXS), the “subjects experiencing mild sedation” value is recorded as 25%. Also, the “subjects who experienced clinical benefit” value with adults with FXS (12 adults with FXS, reductions in hyperactivity and anxiety) is given as 75%. In the data set on adults with FXS, the pharmacokinetics result is recorded as “variable pharmacokinetics” and the tolerability entry is “good tolerability”.

As for `CC12CC3CC(C)(C1)CC(N)(C3)C2` [memantine], in [1], the “dendritic spine development and synapse formation” value is “correction of dendritic spine development and synapse formation”. Also, in [2], the “subjects who developed treatment limiting irritability” value was “Two” and the “subjects with clinical response (CGI-I very much improved or much improved)” value is given as 67%.

Turning to `Oc1noc2c1CCNC2` [gaboxadol], the “effect on phenotype of fmr1 KO mice” value in the data set with fmr1 KO mice was “restored neuron excitability deficits in the amygdala, reduced hyperactivity, and reduced PPI deficits”.

As for `COC(=O)N1CC[C@@H]2[C@H]1CCC[C@@]2(O)C#Cc1cccc(C)c1` [AFQ056], the group treatment effect entry in the data set with males with FXS (30 males with FXS aged 18 to 35 years) was “not associated with significant group treatment effect”. Besides, in the data set with males with FXS (ABC subscales and total, CGI-I, Visual Analogue Scale, Repetitive Behavior Scale-Revised), the “response in 7 subject subset with full fmr1 gene methylation” value is recorded as “significant response to AFQ056 compared to placebo”.

Turning to `Cc1cccc(C#Cc2ccccc2)n1` [MPEP, 2-methyl-6-(phenylethynyl)-pyridine], the “effect on phenotypic characteristics of the fmr1 mouse model” value at mGluR5 is “reverse phenotypic characteristics, including audiogenic seizures, altered pre-pulse inhibition (PPI), and open field hyperactivity”.

As for `CC(=O)[C@H]1CC[C@H]2[C@@H]3CC[C@H]4C[C@H](O)CC[C@]4(C)[C@H]3C(=O)C[C@]12C` [alphaxalone], in the data set with fmr1 KO mice, the “effect on phenotype of fmr1 KO mice” value is “reductions in anxiety and rescue of audiogenic seizures”.

Take `NC[C@H](CC(=O)O)c1ccc(Cl)cc1` (single isomer, unassigned) [STX209]: in the data set with subjects with FXS (63 subjects aged 6 to 40 years), the “ABC Irritability (ABC-I) subscale, primary outcome measure” value is on record as “not associated with improvement on the primary outcome measure”. Besides, in the data set with subjects with FXS (human, in vivo), the “ABC-SW and VABS Socialization, post-hoc 27 subject subset with baseline ABC-SW >8” value was “significant STX209-associated improvement”; the “Social Avoidance scale (ABC-SA), post-hoc analysis” value is listed as “significant group-wide improvement”; the subjects reporting sedation was 8%; the tolerability entry is reported as “well tolerated”. Further, the “effect on protein synthesis and dendritic spines” value in the data set with fmr1 knockout mice is “correction of aberrant protein synthesis and dendritic spine abnormalities”.

Turning to `Cc1nc(C#Cc2cccnc2)cs1` [MTEP, 3-((2-Methyl-4-thiazolyl)ethynyl)pyridine], the “alcohol withdrawal associated anxiety effects” value in [3] is listed as “reduce alcohol withdrawal associated anxiety effects”. For the same compound, the alcohol intake entry with alcohol intake is recorded as “reduced alcohol intake”.

As to `CC/C(=C(\c1ccccc1)c1ccc(OCCN(C)C)cc1)c1ccccc1` [Tamoxifen], the “ERK activation and translocation of ERK/MAPK (positive control)” value in the data set on ERK/MAPK was “induces ERK activation; also recorded: cytoplasmic localization of ERK 1/2”.

On to `NCCS(=O)(=O)O` [taurine], for which, in the data set on fmr1 KO mice, the “effect on phenotype of fmr1 KO mice” value was “Improvements in memory acquisition and retention”.
